# Test results as given in US11607461B2, “Compositions and methods for genetically modifying myosin phosphatase target subunit (Mypt1) gene for lowering blood pressure” (University of Maryland, Baltimore, priority 2016, dated 2023).
# Key:
# [1] = tested on: First-order mesenteric arteries (MA1); test: Wire myography: relaxation to 8-Br-cGMP of α-toxin permeabilized, calcium-clamped arteries; set-up: species or system mouse; settings: for EC50: α-toxin permeabilized, pCa6
# From the text: (§1) First-order mesenteric arteries (2 mm length; 200-250 μm ID) were dissected free of connective tissue in a HEPES-bicarbonate physiological saline solution containing the following concentrations (in mM): 112 NaCl, 25.7 NaHCO3, 4.9 KCl, 2.0 CaCl2, 1.2 MgSO4, 1.2 KH2PO4, 11.5 glucose, and 10 HEPES. The solution was at pH 7.4 and maintained at 37 C for experiments. Arteries were mounted on a 4-chamber wire myograph (Model 610M, Danish Myo Technology, Aarhus, Denmark). Force was continuously recorded and measured at steady state. Starting tension (IC90) was equally applied to all arteries as previously described (Reho et al., Am J Physiol Heart Circ Physiol 307: H563-573, 2014). Arteries were then primed with 2 separate dose of phenylephrine (10 μM) and allowed to equilibrate for 20 minutes in fresh, heated HEPES-bicarbonate buffer. Intact arteries were subjected to dose response to phenylephrine (α-adrenergic agonist; 1 nM-100 μM), U46619 (thromboxane mimetic; 1 nM-10 μM), and angiotensin II (1 nM-10 μM). Maximal response of MAs to depolarization was assessed with 100 mM KCl. A subset of arteries was permeabilized with α-toxin (1000 U/mL) and subjected to calcium clamp in high relaxing solution (pCa9) containing the following (in mM): 60 KMS, 5 EGTA, 0.02 CaCl2, 9.26 MgCl2, 5.2 Na2ATP, 25 creatine phosphate, and 25 BES with pH 7.1 (intracellular pH) by 1N KOH. Permeabilized arteries were subjected to dose response of calcium. Phenylephrine-induced calcium sensitization was performed under calcium clamp at a sub-maximal concentration of calcium (pCa6; 1 μM) with intracellular calcium stores depleted by preincubation of arteries with 10 μM A-23187. Vessels were activated with 10 μM phenylephrine with or without preincubation with L-NAME (100 μM). Vasorelaxation responses to the NO donor DEA/NO were assessed in intact arteries activated with a sub-maximal concentration of phenylephrine (10 μM). Dose response to 8-Br-cGMP (1 nM-100 μM) were assessed in α-toxin permeabilized, calcium-clamped (pCa6; 1 μM) arteries. Relaxation data are presented as percent of maximal force. All chemicals were purchased from Sigma-Aldrich (St Louis, Mo.).
# (§2) All data are presented as means±SEM. Data were analyzed and graphed using SigmaPlot software (SYSTAT, Chicago, Ill.). mRNA and protein data and mean arterial pressures were analyzed using a one way ANOVA. Vascular function data were analyzed via One way ANOVA and a Bonferroni post-hoc test or Two way repeated measures ANOVA and a Bonferroni post-hoc test. EC50 were calculated via standard curve analysis. Significance was accepted with a p<0.05.
# [2] = tested on: First-order mesenteric arteries (MA1); test: Wire myography: force generation, dose response to phenylephrine in intact arteries; settings: Mus musculus, read-out: EC50 force generation to PE
# From the text: as §1, §2
# [3] = tested on: First-order mesenteric arteries (MA1); test: Wire myography: vasorelaxation to DEA/NO of intact arteries activated with phenylephrine; set-up: species or system mouse; settings: for EC50: pre-constriction with PE 10 μM, read-out: EC50 relaxation to DEA/NO
# From the text: as §1, with “Permeabilized arteries were subjected to dose response of calcium. Phenylephrine-induced calcium sensitization was performed under calcium clamp at a sub-maximal concentration of calcium (pCa6; 1 μM) with intracellular calcium stores depleted by preincubation of arteries with 10 μM A-23187. Vessels were activated with 10 μM phenylephrine with or without preincubation with L-NAME (100 μM).” left out, “Relaxation data are presented as percent of maximal force. All chemicals were purchased from Sigma-Aldrich (St Louis, Mo.).” left out
# as §2, with “Significance was accepted with a p<0.05.” left out
# [4] = tested on: PPP1R12A (Mypt1) exon 24 flanking region; test: Surveyor nuclease assay on genomic PCR products of transfected HEK293T cells; assay type: cell-based, human; settings: constructs tested individually; for Surveyor nuclease products (sizes): control ~750 bp
# Description: HEK293T cells were seeded at a density of 1×10^5 cells/well in 24-well plates. After 24 hours, while cell confluence reached approximately 80%, cells were transfected with 1µg of sgRNA-px601 vector (experimental conditions) or px601 vector (empty vector) or pIRES-EYFP vector (positive transfection control). All transfections were performed in duplicates using Lipofectamine® 3000 Reagent (Life Technologies/ThermoFisher Scientific, Waltham, Mass.) according to the manufacturer's protocol. Twenty-four hours after transfection, a volume of 0.5 mL of culture medium was added per well (reaching a total volume of 1 mL per well). Cells were harvested 72 hours after transfection; culture medium was removed, cells were trypsinized using Gibco™ TrypLE™ Express (Life Technologies/ThermoFisher Scientific), pelleted and cell pellets were stored at −20° C. The transfection efficiency was evaluated immediately prior to harvesting of cells, by inspection of HEK293T cells transfected with pIRES-EYFP vector using a Leica MZ-FLIII fluorescence microscope equipped with a GFP filter set (Leica Microscopy Systems Ltd., Heerbrugg, Switzerland).
# Genomic DNA was purified from the transfected cells using PureLink™ Genomic DNA Mini Kit (Invitrogen/ThermoFisher Scientific, Waltham, Mass.) as per the manufacturer's protocol. In order to investigate if genome editing occurred, locus PCR amplifying a 754 pb-region flanking the exon 24 of PPP1R12A gene was performed using primers MYPT12AE24F 5′-[…]-3′ (SEQ ID NO:3) (intronic region 155894 bp to 155913 bp on PPP1R12A ENSG00000058272) and MYPT12AE24R 5′-[…]-3′ (SEQ ID NO:4) (intronic region 156626 bp to 156647 bp on PPP1R12A ENSG00000058272). PCR conditions were as follows: 95° C. 5 min, then 95° C. 30 s, 53° C. 45 s, 72° C. 60 s for 30 cycles, with 5 min of final extension step at 72° C. PCR products were resolved by 2% agarose gel electrophoresis. When PCR product size was shorter than the control PCR product, genome editing occurred. For PCR products that could not be separated from the control product on 2% agarose gel due to the low resolution of the gel, a surveyor nuclease assay was performed using the Surveyor® Mutation Detection Kit (Integrated DNA Technologies, Coralville, Iowa) as per manufacturer's protocol for better visualization of the edits. The Surveyor® Mutation Detection Kit uses an endonuclease that cleaves DNA with high specificity at sites of mismatches and other distortions, allowing the detection of known and unknown DNA mutations. Briefly, target DNA is amplified by PCR from both wild-type (WT) and mutated DNA, WT and mutant DNA are then hybridized to form heteroduplexes, which are subsequently cleaved by the surveyor endonuclease. When no mutation is present, only homoduplexes are formed and no endonuclease-mediated cleavage is observed.
# [5] = E24 cKO MA1s, highest concentration
molecule,measurement,setting,value
"Nc1nc2c(nc(Br)n2[C@@H]2O[C@@H]3COP(=O)(O)O[C@H]3[C@H]2O)c(=O)[nH]1 [8-Br-cGMP, 8-bromo-cGMP]",EC50,[1]; CON mice,95.2 ± 11 nM
same,EC50,[1]; E24 F/+,3 ± 2.5 nM
same,EC50,[1]; E24 F/F,6 ± 1.5 nM
same,maximal response to 8-Br-cGMP,[1]; [5],complete relaxation
"CNC[C@H](O)c1cccc(O)c1 [PE, phenylephrine]",EC50,"[2]; 336 h, CON+HS (high salt 4% NaCl, 2 weeks)",1000 ± 500 nM
same,EC50,[2]; CON mice,500 ± 100 nM
same,EC50,[2]; CON+NS (normal salt diet),900 ± 400 nM
same,EC50,[2]; E24 F/+,600 ± 200 nM
same,EC50,[2]; E24 F/F+HS,3000 ± 1000 nM
same,EC50,[2]; E24 F/F+NS,400 ± 200 nM
same,EC50,[2]; E24 F/F,900 ± 200 nM
CCN(CC)/[N+]([O-])=N/[O-].[Na+] [DEA/NO],EC50,[3]; E24 F/+ (cKO heterozygotes),3.3 ± 0.5 nM
same,EC50,[3]; E24 F/F (cKO homozygotes),2.1 ± 0.5 nM
same,maximal response to DEA/NO,[3]; [5],complete relaxation
"sgRNA6: guide RNA, target … (SEQ ID NO: 10); tested cloned in px601 SaCas9 plasmid (nucleic acid) guide: GUAUCUGAAAGGUGACCGGCGUUUUAGUACUCUGGAAACAGAAUCUACUAAAACAAGGCAAAAUGCCGUGUUUAUCUCGUCAACUUGUUGGCGAGAUUUUU",genome editing in vitro (in words),[4],effective genome editing
same,Surveyor nuclease products (sizes),[4],250/500
"sgRNA11: guide RNA, target … (SEQ ID NO: 15); tested cloned in px601 SaCas9 plasmid (nucleic acid) guide: GUUAUGUGUAGCAUUAAUGCAGUUUUAGUACUCUGGAAACAGAAUCUACUAAAACAAGGCAAAAUGCCGUGUUUAUCUCGUCAACUUGUUGGCGAGAUUUUU",genome editing in vitro (in words),[4],effective genome editing
same,Surveyor nuclease products (sizes),[4],320/430
"sgRNA5: guide RNA, target … (SEQ ID NO: 9); tested cloned in px601 SaCas9 plasmid (nucleic acid) guide: GCAUUAUUUAUUAAUCUGGGAGUUUUAGUACUCUGGAAACAGAAUCUACUAAAACAAGGCAAAAUGCCGUGUUUAUCUCGUCAACUUGUUGGCGAGAUUUUU",genome editing in vitro (in words),[4],effective genome editing
same,Surveyor nuclease products (sizes),[4],120/630
"sgRNA9: guide RNA, target … (SEQ ID NO: 13); tested cloned in px601 SaCas9 plasmid (nucleic acid) guide: GAGAAUGCUUAUCAUUUAAGGGUUUUAGUACUCUGGAAACAGAAUCUACUAAAACAAGGCAAAAUGCCGUGUUUAUCUCGUCAACUUGUUGGCGAGAUUUUU",genome editing in vitro (in words),[4],effective genome editing
same,Surveyor nuclease products (sizes),[4],330/420
"sgRNA12: guide RNA, target … (SEQ ID NO: 16); tested cloned in px601 SaCas9 plasmid (nucleic acid) guide: GAUACAAAGCUAUAAAGUCAGGUUUUAGUACUCUGGAAACAGAAUCUACUAAAACAAGGCAAAAUGCCGUGUUUAUCUCGUCAACUUGUUGGCGAGAUUUUU",genome editing in vitro (in words),[4],effective genome editing
same,Surveyor nuclease products (sizes),[4],270/480
